Results published in patent US5965578A, “Inhibitors of farnesyl-protein transferase” (Merck & Co., Inc., priority 1997, dated 1999).
pIC50: −log10 of the molar value. Structures can show the parent of a compound that is named as a salt. Where two headings read alike, the source gives them in different places.

Target: T1, human FPTase (Homo sapiens, UniProt P49354+P49356)
T1 construct: made in house
Experiment: In vitro inhibition of ras farnesyl transferase (human FPTase assay)
Type: biochemical
Description: Assays of farnesyl-protein transferase. […] Reactions were initiated with FPTase and stopped with 1 ml of 1.0 M HCL in ethanol. […] Purified compounds were dissolved in 100% dimethyl sulfoxide (DMSO) and were diluted 20-fold into the assay. Percentage inhibition is measured by the amount of incorporation of radioactivity in the presence of the test compound when compared to the amount of incorporation in the absence of the test compound.
Human FPTase activity was assayed as described above with the exception that 0.1% (w/v) polyethylene glycol 20,000, 10 μM ZnCl2 and 100 nM Ras-CVIM were added to the reaction mixture. Reactions were performed for 30 min., stopped with 100 μl of 30% (v/v) trichloroacetic acid (TCA) in ethanol and processed as described above for the bovine enzyme.

pIC50 (human FPTase, 100 nM Ras-CVIM, [3H]-FPP, 30 min, read-out: IC50 of inhibitory activity against human FPTase) | SMILES | pIC50
 | N#Cc1ccc(Cc2cncn2CC2CCN(c3ccccc3)C(=O)C2)cc1 (centres unmarked) [Example 1, 4-[5-(4-Cyanobenzyl)imidazol-1-ylmethyl]-1-phenyl-2-piperidinone hydrochloride] | ≥ 5.00
≥ 5.00 | CCOC(=O)C1(Cc2cccc(C)c2)CCN(Cc2cncn2Cc2ccc(C#N)cc2)CC1=O (centres unmarked) [Example 6, Ethyl 1-[3-(4-cyanobenzyl)-3H-imidazol-4-ylmethyl]-3-oxo-4-(3-methylbenzyl)piperidine-4-carboxylate trifluoroacetate salt] | 
